Measured values from a melting point compilation (Tetko et al.).

SMILES | melting point
Brc1ccc(-c2ccno2)s1 | 66 to 67 °C
NP(=O)(Oc1ccccc1)Oc1ccccc1 | 149 °C
CC(=O)N(C(C)=O)c1ccc(N=Nc2ccccc2C)cc1C | 75 °C
Cc1c(COC(=O)C2C(C=C(Cl)C(F)(F)F)C2(C)C)cccc1-c1ccccc1 (centres undefined) | 79.6 °C
O=[N+]([O-])c1cccnc1N1CCOCC1 | 89 to 91 °C
CCOC(=O)C(O)c1ccccc1 (racemic) | 37 °C
CC12CC(O)C3C(CCC4(O)CC(O)CC(O)C34CO)C1(O)CCC2C1=CC(=O)OC1 (centres undefined) | 236 °C
Cc1cccc2c1C/C2=N/Nc1ccc([N+](=O)[O-])cc1[N+](=O)[O-] | 227 °C
O=[N+]([O-])c1ccc(O)cc1C(F)(F)F | 76 °C
CC(=O)N(C)c1ccccc1 | 103 °C
FC(F)(F)C(Cl)Br (centres undefined) | -118 °C
NS(=O)(=O)c1cc(C(=O)c2ccc(O)cc2)cs1 | 192 °C
Nc1ccc(Cl)cc1Br | 66 °C
Cc1cccc2c1CC2=O | 56 °C
COc1cc(OC)c(C)c(OC)c1 | 28 °C
Cc1ccccc1NC(N)=O | 190 to 195 °C
ON(C=C(Br)c1ccccc1)c1ccccc1 | 180 °C
N#CCCC1CCCCCCCCCCC1=O (centres undefined) | 60 to 61 °C
Cc1cc([N+](=O)[O-])c[nH]c1=O | 230 to 234 °C
O=C(O)c1cccc(Cn2cccn2)c1 | 151 to 152 °C
Cc1oc(C(=O)NN)nc1-c1ccccc1 | 124 to 126 °C
OCc1c(F)ccc(F)c1Cl | 47 °C
Nc1ccc(C(C/C(=N/O)c2ccccc2)NO)cc1 (centres undefined) | 178 to 179 °C
O=Cc1cn(Cc2ccccc2)c2ccccc12 | 108 to 110 °C
Fc1nc(F)nc(F)n1 | -38 °C
CCNc1ccc2ccccc2c1N=Nc1ccc(N=Nc2ccccc2)cc1 | 130 °C

SMILES | melting point
Nc1cc(Cl)c(Cl)c(Cl)c1Cl | 118 to 119 °C
C1SCSCS1 | 220 °C
C1=CCC(c2ccncc2)CC1 (centres undefined) | 22.1 °C
Cc1ccc(NC(=O)C=CC(=O)O)cc1 | 205 °C
N#Cc1nccc2ccccc12 | 89 °C
O=C(c1ccccc1)c1cnc2ccc(Br)cn2c1=O | 208 to 210 °C
CCOC(=O)C(=O)C(=O)OCC | -30 °C
O=C1/C(=C/c2ccc([N+](=O)[O-])cc2)SC(=S)N1CNc1ccc([N+](=O)[O-])cc1 | 189 °C
O=C(O)c1cc(O)c2cccc(O)c2n1 | 297 to 298 °C
CC(=O)Nc1ccc2c(c1)Cc1cc([N+](=O)[O-])ccc1-2 | 262 °C
COC(=O)C1(C(=O)OC)Cc2cc(C)ccc2C(=O)O1 | 135 to 136 °C
N#Cc1c(NC(=O)CN2CCOCC2)sc2c1CCCC2 | 178 to 179 °C
Brc1c(Br)c(Br)c(Br)c(Br)c1Br | 326 °C
O=C(Cl)c1csc(-c2ccccc2)n1 | 100 °C
COc1cc(F)ccc1C=O | 61 °C
Cc1cc2ccccc2cc1CBr | 88 to 102 °C
c1ccc(-c2cc[nH]n2)cc1 | 75 to 77 °C
Cc1nc(N(C)C)nc(OC(=O)N(C)C)c1C | 91.6 °C
CCCCCCCCCCCCCCCCc1ccccc1 | 25 to 29 °C
O[C@@H]1CC2=C(CC=CC2)C[C@@H]1O | 139 to 140 °C
O=C(O)C=Cc1ccc(Cl)c([N+](=O)[O-])c1 | 187 °C
CCOC(=O)c1nn(-c2ccc(C)cc2)c(C)c1C(=O)C1=NOC2C(=O)N(c3ccc(Br)cc3)C(=O)C12 (centres undefined) | 238 °C
O=C(O)c1cc(O)ccc1F | 205 °C
CCCCCCCCOC=O | -39.1 °C
O=[N+]([O-])N1CCCCC1 | -5.5 °C
Oc1c(Br)cc(Br)cc1Br | 95.5 °C

SMILES | melting point
C=C(C)C(=O)OC1CC2CCC1(C)C2(C)C (centres undefined) | -60 °C
Cc1cccc(Cc2ccccc2)c1 | -28 °C
CC(=O)Oc1nn(-c2ccccc2)cc1Br | 82 to 85 °C
O=C(O)c1ccc2[nH]cnc2c1 | 300 °C
C[Si](C)(C)Oc1ccccc1 | -55 °C
CCCCCCCCCOc1ccc(N)cc1 | 39 °C
CC(C)CC(NC(=O)C(O)C(N)Cc1ccccc1)C(=O)O (centres undefined) | 233 °C
NC(=S)Nc1ccc(Cl)c(Cl)c1 | 210 to 213 °C
CCN(CC)c1ccc(C=NN(c2ccccc2)c2ccccc2)cc1 | 92 to 95 °C
Cc1cc(Cl)[nH]n1 | 118 °C
CCC(F)(F)C(=O)O | 8 °C
C1COCCOCCOCCOCCN1 | 35 to 37 °C
O=C(/C=C/c1ccco1)c1ccc(O)cc1 | 163 °C
Fc1cccc(C(F)(F)F)c1CBr | 44 °C
CCCBr | -110 °C
ClC1=C(Cl)C2(Cl)C3C4C=CC(C4)C3C1(Cl)C2(Cl)Cl (centres undefined) | 240 °C
O=c1ncn2nc(Sc3ccccc3)ccc2c1-c1c(Cl)cccc1Cl | 262 to 265 °C
CC(N)C(O)c1ccccc1 (centres undefined) | 192 °C
c1cc(-c2cnc3ccccc3n2)cc(-c2cnc3ccccc3n2)c1 | 202 to 203 °C
O=[N+]([O-])c1ccc(-n2ncc3cccnc32)c([N+](=O)[O-])c1 | 181 to 187 °C
CC(=O)OC(OC(C)=O)c1ccc2c(c1[N+](=O)[O-])C(=O)c1c(Cl)c(Cl)c(Cl)c(Cl)c1C2=O | 250 °C
O=C1NC(=O)C2(CCCCC2)N1 | 218 to 220 °C
CSc1nc2nc(SC)n(C)c2c(=O)n1-c1ccc(F)cc1 | 177 to 179 °C
Cc1ccc2ccc(C)nc2c1 | 61 °C
CCOC(=O)CC(=O)C=P(c1ccccc1)(c1ccccc1)c1ccccc1 | 101 to 106 °C
OC(c1ccccc1)(c1ccccc1)C(O)(c1ccccc1)c1ccccc1 | 184 to 186 °C

SMILES | melting point
O=C(O)c1cc(-c2ccc(-c3cc(C(=O)O)c4ccccc4n3)cc2)nc2ccccc12 | > 315 °C
Cc1ccc(N2CCNCC2)cc1C | 63 °C
O=C(O)CSCCOc1ccccc1 | 49 to 52 °C
CCOC(=O)C(C#N)=C1CC(SC)=C(C(=O)OCC)C(=N)N1c1ccc(OC)cc1 | 172 °C
COc1ccc(C(Cl)=C(c2ccc(OC)cc2)c2ccc(OC)cc2)cc1 | 115 °C
CC1CCCC(=O)C1=O (centres undefined) | 58 °C
O=C(Nc1cc(O)cc(C(=O)O)c1)OCC1c2ccccc2-c2ccccc21 | 234 to 236 °C
C(=Nc1ccccc1Nc1ccccc1N=Cc1ccccc1)c1ccccc1 | 102 to 104 °C
COC(=O)c1ccc(C(=O)OC)c(F)c1 | 82 °C
Oc1nccc(C(F)(F)F)n1 | 217 to 218 °C
COC(=O)c1ccc(C)c([N+](=O)[O-])c1 | 51 °C
Brc1cc(Br)c(Oc2ccc(Br)c(Br)c2)c(Br)c1 | 86 to 87 °C
OC(CCCc1ccccc1)c1ccccc1 (centres undefined) | 47 °C
N#C/C(=C/c1cccc(O)c1)c1nc2ccccc2c(=O)[nH]1 | 294 °C
CCCCCCC(O)CO (centres undefined) | 36 to 38 °C
Cc1ccc(C(c2ccc(C)o2)c2cc(Br)cc([N+](=O)[O-])c2O)o1 | 100 °C
Clc1ccc(Cc2c(N=Cc3ccccc3Cl)n[nH]c2N=Cc2ccccc2Cl)cc1 | 199 to 201 °C
O=C(O)Cc1c[nH]c2ccc(O)cc12 | 162 to 165 °C
c1ccc(C2Nn3c(nnc3-c3cccnc3)S2)cc1 (centres undefined) | 220 °C
O=C(O)CCc1ccc(O)c(O)c1 | 138 °C
Nc1nc(S)nc2[nH]ncc12 | 300 °C
CC(=O)c1ccccc1[N+](=O)[O-] | 28.5 °C
O=C1/C(=N\Nc2cccc([N+](=O)[O-])c2)C(C(F)(F)F)=NN1c1ccccc1 | 150 °C
O=C(O)CCCNC(=O)CCCCC(=O)NCCCC(=O)O | 145 °C
Brc1ccc2nccnc2c1 | 54 to 55 °C
O=C1COC(c2ccc(C(F)(F)F)cc2)CN1 (centres undefined) | 116 °C

SMILES | melting point
Nc1ccc2ccccc2c1N=Nc1ccccc1 | 103 °C
Cc1ccc(Oc2ccc(Br)cc2)nn1 | 120 °C
CCCCc1ccc(NC(C)=O)cc1 | 107 to 109 °C
CNC(=O)c1cc([N+](=O)[O-])cc([N+](=O)[O-])c1 | 148 to 149 °C
NNC(=O)C1SCCN1S(=O)(=O)c1ccc(Cl)cc1 (centres undefined) | 200 to 201 °C
CN1C(=O)C(=NNc2ccc(F)cc2)C(=O)N(C)C1=O | 191 °C
O=C(O)c1cccc(-c2ccccn2)c1 | 207 to 209 °C
Cc1ccccc1NC(=O)c1cnc(C(C)(C)C)cn1 | 81 °C
Nc1nc(-c2ccc(O)cc2)cs1 | 206 to 208 °C
N#CCCn1c(=O)oc2ccccc21 | 118 to 120 °C
Clc1c2ccccc2cc2ccccc12 | 104 °C
FC(F)(F)c1cnc(N2CCNCC2)c(Cl)c1 | 65 to 67 °C
N#Cc1cc([N+](=O)[O-])ccc1Sc1nnc(N)s1 | 245 to 246 °C
O=C(OCc1ccccc1)ON1C(=O)CCC1=O | 80 °C
CN1CCN(c2ccc(CO)cc2)CC1 | 118 to 119 °C
Oc1ccc(C2CCCC2)cc1 | 65 °C
C=CCC1(C(C)CCC)C(=O)NC(=S)NC1=O (centres undefined) | 132 °C
COc1ccc(C(O)C(O)c2ccccc2)cc1 (centres undefined) | 129 °C
Cc1ccc(N=C(CNc2ccc(C)cc2)Nc2ccc(C)cc2)cc1 | 136 °C
CCNC(C)CC (centres undefined) | -104 °C
Cc1ccc(-c2ccc(C=CC(=O)c3ccccc3)o2)cc1 | 100 to 101 °C
O=C(CCc1ccccc1)/C(=N\O)c1ccccc1 | 129 to 130 °C
CC(=NO)c1ccc(Cl)c(Cl)c1 | 108 to 111 °C
Cc1cccc(NN=C2C(=O)NN=C2C(F)(F)F)c1 | 155 °C
CCOC(=O)c1cc2cccc(OC)c2o1 | 85 to 90 °C
